Measured values from patent US20260022134A1, “N-HETEROCYCLE-CONTAINING BORIC ACID COMPOUND AND PREPARATION METHOD AND APPLICATION THEREOF” (Hangzhou City University, priority 2022, published 2026).

Columns and labels:
Assay type in all cases: cell-based
glioblastoma cells A172 [1] = experiment: Cell colony-formation assay; conditions: cells A172, 14 days, different concentrations
Experimental: (§1) The cells of the logarithmic phase were taken and dissociated by 0.25% trypsin-EDTA and blown into single cells, and inoculated into the 6-well plate with a density of 2000 to 3000 pcs/well, and gently shaken to disperse the cells uniformly and then placed into 5% CO2, 37° C. incubator for incubation. After 24 h, the original culture medium was discarded and a fresh cell culture medium containing drugs of corresponding concentrations was then added, and the cells then were incubated in the incubator for about 14 days. During this period, the fresh culture medium containing the drugs of corresponding concentrations was replaced every two or three days. Frequent observation should be made to ensure that when a macroscopic colony appears in the culture plate, the culture was ended. The supernatant was discarded and cleaning was performed carefully twice with PBS. […] Finally, the number of the formed colonies was calculated.
(§2) In order to determine the effect of (3-((5-chloro-4-(1H-pyrrolo[2,3-b]pyridin-3-yl)pyrimidin-2-yl)amino)phenyl)boric acid on the cell colony formation ability of the glioblastoma, we treated the cells U251 and A172 with different concentrations of (3-((5-chloro-4-(1H-pyrrolo[2,3-b]pyridin-3-yl)pyrimidin-2-yl)amino)phenyl)boric acid and 14 days later, determined the cell colony formation ability by colony determination.

glioblastoma cells U251 [2] = experiment: Cell colony-formation assay; conditions: cells U251, 14 days, different concentrations
Experimental: as §1, §2

glioma cells U251 = experiment: Flow cytometry cell cycle analysis (PI staining); conditions: cells U251, 24 h treatment; increased from 14.70%
Experimental: (§3) The cells of the logarithmic phase were taken and dissociated by 0.25% trypsin-EDTA and blown into single cells, and inoculated into the 6-well plate with a density of 2000 to 3000 pcs/well, and gently shaken to disperse the cells uniformly and then placed into 5% CO2, 37° C. incubator for incubation. After 24 h, the original culture medium was discarded and a fresh cell culture medium containing drugs of corresponding concentrations was then added; after the cells were incubated for 24 h, the cells were dissociated by 0.25% trypsin-EDTA and cleaned twice with 1 mL of precooled PBS and then re-suspended with 250 μl PBS and slowly added dropwise into 750 μl of precooled 75% ethyl alcohol, and then fixed at the temperature of −20° C. overnight. […] Propidium iodide (PI) with a final concentration of […] was added for staining of 1 h free from light at room temperature, and then filtered by gauze and then transferred to a flow tube and detected and analyzed by a flow cytometer.
(§4) In order to determine the mechanism of the growth inhibition effect of (3-((5-chloro-4-(1H-pyrrolo[2,3-b]pyridin-3-yl)pyrimidin-2-yl)amino)phenyl)boric acid on the cells U251 and U87, after 24 h following the treatment with different concentrations of (3-((5-chloro-4-(1H-pyrrolo[2,3-b]pyridin-3-yl)pyrimidin-2-yl)amino)phenyl)boric acid, the cell cycle was analyzed and evaluated by flow cytometry.

glioma cells U87 = experiment: Flow cytometry cell cycle analysis (PI staining); conditions: cells U87, 24 h treatment; increased from 11.99%
Experimental: as §3, §4

[3] = system: p-Stat3, p-Akt, c-Myc, Cyclin B1, p-Erk1/2 in cells U87; experiment: Western blot of cell protein expressions; conditions: cells U87, after 24 h treatment
Experimental: (§5) The cell supernatant was discarded and the cells were washed twice with PBS; based on cell confluence, a corresponding amount of Loading buffer was added, and stirred by a pipette tip while fully covered, and then collected to a centrifuge tube and centrifuged and then placed into a high-temperature metal bath of 100° C. for denaturation of 10 min, then cooled on ice and centrifuged and stored at the temperature of −20° C. for later use in the Western blot. The loading volume was adjusted by Western block pre-experiment to ensure the internal control proteins were uniform. • 2) BSA quantitative method
(§6) The cells treated by the trypsin dissociation and collection assay were centrifuged for 4 min at the rotation speed of 1500 rpm/min. The supernatant was discarded and the cells were re-suspended and washed with the pre-cooled PBS and then transferred to al. 5 mL Eppendorf tube and then centrifuged again and the supernatant was all discarded. Cell lysis was carried out on ice, and based on a precipitation amount, a proper amount of RIPA lysis solution was added and blown uniform by the pipette and then stood on ice. The cells were whirled or dispersed once every other 10 min, and 30 min later, the cells were put into a pre-cooled 4° C. centrifugal machine and centrifuged for 30 min at the rotation speed of 12000 rpm/min. The supernatant was sucked to a new Eppendorf tube to obtain a protein sample solution.
(§7) A standard protein BSA was selected for making a standard curve and the BSA was sequentially half-diluted by 10 factors. The protein sample was diluted with deionized water by 10 factors and 5 μL of diluted sample was sucked to a new Eppendorf tube and then 200 μL of BCA reagent was added to each tube (liquid A: liquid B=50:1) and placed in a 37° C. drying oven for incubation of 30 min After completion of the reaction, the liquid was whirled uniformly and 100 μL was sucked to a 96-well plate and measured for the OD value at the position of the wavelength 562 nm. Based on the standard curve, quantification was performed to sub-package the protein sample and then 5×Loading buffer was added for denaturation of 10 min at the temperature of 100° C., and cooled and centrifuged and then stored at the temperature of −20° C. for later use. • 3) Gel preparation: based on the size of target protein molecules, a desired gel was prepared and then solidified and then put into deionized water and stored in 4° C. refrigerator for later use. • 4) Electrophoresis: before electrophoresis, the protein sample was heated for 3 to 5 min at the temperature of 100° C. and then cooled and centrifuged and then loaded. A protein marker was added before the sample and then equal-volume or equal-quantity loading was performed in a sequence. After completion of loading, constant-voltage electrophoresis was performed with the voltage adjusted to 70V. Electrophoresis was stopped when the sample runs to a position 1 cm from the bottom glass plate, and transfer was performed. • 5) Transfer: 1×Transfer buffer 1000 mL containing 10% anhydrous ethanol was prepared, and the anhydrous ethanol activates PVDF membrane for 1 min and then the membrane was put into a Trans Buffer solution. Based on the target protein molecules, gel cutting was performed, and transfer was carried out based on black gel and white membrane. Under the condition of ice water bath, 330 mA constant-current transfer was performed for 70 min. • 6) Blocking: after transfer completion, the membrane was put into 5% skimmed mil powder solution and the shaker was blocked for 1 h at room temperature. • 7) Primary antibody incubation: a corresponding primary antibody was prepared for incubation of a target strip. The primary antibody was put into a 4° C. refrigerator and incubated by the shaker overnight. […]

[4] = system: p-Stat3, p-Akt, c-Myc, Cyclin B1, p-Erk1/2 in cells U251; experiment: Western blot of cell protein expressions; conditions: cells U251, after 24 h treatment
Experimental: as §5, §6, §7

glioblastoma cells A172 [5] = experiment: Transwell cell migration assay; conditions: cells A172, 24 h, different concentrations
Experimental: (§8) The cells of the logarithmic phase were taken and dissociated by 0.25% trypsin-EDTA and blown into single cells. 200 μL of serum-free culture medium containing 5×10^4 cells was sucked and added into the Transwell upper chamber and 600 μL of culture medium containing 20% FBS was transferred to the Transwell lower chamber and drugs of corresponding concentrations were added to the upper and lower chambers. Culture was performed for 24 h in the cell incubator. In each well of the 24-well plate, 300 μL of 1% crystal violet methanol solution was added. After the culture medium was sucked and discarded, the Transwell chamber was placed into crystal violet and fixed free from light at room temperature and stained for 30 min. The chamber was picked by tweezers into the PBS buffer solution and washed slowly, and the cells and surplus crystal violet in the upper chamber were gently wiped with a cotton swab and then photographed under microscope for counting to calculate the number of the migrating cells of each group. […]

glioblastoma cells U251 [6] = experiment: Transwell cell migration assay; conditions: cells U251, 24 h, different concentrations
Experimental: as §8

glioblastoma cells U87 = experiment: SRB colorimetric analysis, cell survival/proliferation
Experimental: (§9) After passage to the logarithmic phase, the cells were dissociated by 0.25 trypsin-EDTA and blown into single cells, and with a final cell concentration adjusted to […], inoculated into a 96-well plate with each well 100 μl (edge wells were filled with sterile PBS), 5% CO2, and 37° C. incubation. After 24 h (until a single layer of cells were spread to 30% to 50% of the well bottom), a cell culture solution containing drugs of corresponding concentrations was added and incubated for 24, 48 and 72 h in a 5% CO2, 37° C. incubator. Each drug concentration was provided with three parallel wells. The cells were medicate-cultured for 24, 48 and 72 h and then fixed by trichloroacetic acid (TCA). Each well of the cells was fixed by a pre-cooled 15% TCA liquid 100 μl, and then the 96-well plate was moved to 4° C. and stood for 4 h. The fixing liquid was discarded and the 96 wells were washed five times with sterile triple-distilled water and spin-dried and air-dried in 37° C. drying oven. Each well was added with 100 μl 0.4% SRB solution, and kept free from light and stood for 30 min at room temperature. The SRB not combined with proteins was cleaned with 1% glacial acetic acid and air-dried in 37° C. drying oven. The combined SRB was dissolved by 100 μl 10 mM non-buffer Tris alkaline solution (pH 10.5), and oscillated and mixed uniformly and then measured for the OD value on an enzyme-linked immuno detector. By blank control zero setting, the OD value of each well was measured at the position of a wavelength of 570 nm. The obtained growth inhibition rate of the tumor cells was defined as an in vitro inhibition rate of the drug on the tumor cells. The inhibition rate is […].
(§10) Firstly, we evaluated the growth inhibition effect of (3-((5-chloro-4-(1H-pyrrolo[2,3-b]pyridin-3-yl)pyrimidin-2-yl)amino)phenyl)boric acid on the MG cells U251A172 and U87 of three different glioblastoma cell series. With different concentrations of (3-((5-chloro-4-(1H-pyrrolo[2,3-b]pyridin-3-yl)pyrimidin-2-yl)amino)phenyl)boric acid, the cells U251, A172 and U87 were treated for 24 h, 48 h and 72 h and then based on the SRB detection method, the survival rate of the cells treated by (3-((5-chloro-4-(1H-pyrrolo[2,3-b]pyridin-3-yl)pyrimidin-2-yl)amino)phenyl)boric acid was detected. […] The cytotoxic effect of the U87 was more obvious than those of U251 and A172.

glioblastoma cells A172 [7] = experiment: as above
Experimental: as §9, §10

glioblastoma cells U251 [8] = experiment: as above
Experimental: as §9, §10

OB(O)c1cccc(Nc2ncc(Cl)c(-c3c[nH]c4ncccc34)n2)c1 [(3-((5-chloro-4-(1H-pyrrolo[2,3-b]pyridin-3-yl)pyrimidin-2-yl)amino)phenyl)boric acid]
number of cell colonies (glioblastoma cells A172 [1]): reduced the number of the cell colonies in a dose-dependent way | number of cell colonies (glioblastoma cells U251 [2]): reduced the number of the cell colonies in a dose-dependent way | distribution of the G2/M phase (glioma cells U251): 40.61% | distribution of the G2/M phase (glioma cells U87): 42.62% | Cyclin B1 protein expression [3]: decreased | c-Myc protein expression [3]: decreased | p-Akt protein expression [3]: decreased | p-Erk1/2 protein expression [3]: increased | p-Stat3 protein expression [3]: decreased | Cyclin B1 protein expression [4]: decreased | c-Myc protein expression [4]: decreased | p-Akt protein expression [4]: decreased | p-Erk1/2 protein expression [4]: increased | p-Stat3 protein expression [4]: decreased | cell migration (number of migrating cells) (glioblastoma cells A172 [5]): significant cell migration inhibition effect | cell migration (number of migrating cells) (glioblastoma cells U251 [6]): significant cell migration inhibition effect | cytotoxic effect (survival rate, SRB) (glioblastoma cells U87; cells U87, 24 h, 48 h and 72 h, different concentrations): significant cytotoxic effect | IC50 (glioblastoma cells U87; cells U87 treated for 72 h): 170 nM | IC50 (glioblastoma cells A172 [7]; Homo sapiens, A 172, cells A172 treated for 72 h): 480 nM | cytotoxic effect (survival rate, SRB) (glioblastoma cells A172 [7]; cells A172, 24 h, 48 h and 72 h, different concentrations): significant cytotoxic effect | IC50 (glioblastoma cells U251 [8]; Homo sapiens, U-251, cells U251 treated for 72 h): 380 nM | cytotoxic effect (survival rate, SRB) (glioblastoma cells U251 [8]; cells U251, 24 h, 48 h and 72 h, different concentrations): significant cytotoxic effect
